# Experiments:
# Assay in all cases: 8-[Fluo]-cAMP Fluorescence Polarization Binding Assay
# [1] = target: cAMP-dependent protein kinase type I-alpha regulatory subunit (Homo sapiens, UniProt P10644)
# Experimental: (§1) The ability of the R subunit basic patch mutants to bind cAMP in the absence of the C subunit was tested using the fluorescent cAMP analogue, 8-[fluo]-cAMP (Biolog), used at a final concentration of 10 nM. Wells were titrated with a rangeof R subunit concentrations (from 0 to 125 nM), which were diluted with FP assay buffer.
# [2] = target: cAMP-dependent protein kinase type I-alpha regulatory subunit [K242A] (Homo sapiens, UniProt P10644, K242A)
# Chain of cAMP-dependent protein kinase type I-alpha regulatory subunit [K242A] (P10644 whole entry K242A): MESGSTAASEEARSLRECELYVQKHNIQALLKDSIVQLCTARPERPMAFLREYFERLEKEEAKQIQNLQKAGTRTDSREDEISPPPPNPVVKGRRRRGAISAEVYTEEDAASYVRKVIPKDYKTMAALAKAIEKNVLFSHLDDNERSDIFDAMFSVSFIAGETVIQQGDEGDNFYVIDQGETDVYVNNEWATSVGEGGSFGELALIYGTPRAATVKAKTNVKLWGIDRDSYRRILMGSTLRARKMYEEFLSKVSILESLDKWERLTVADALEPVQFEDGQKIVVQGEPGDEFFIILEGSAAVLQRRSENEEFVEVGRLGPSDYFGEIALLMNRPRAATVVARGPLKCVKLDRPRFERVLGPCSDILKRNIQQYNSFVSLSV
# Experimental: as §1
# [3] = target: cAMP-dependent protein kinase type I-alpha regulatory subunit [K244A] (Homo sapiens, UniProt P10644, K244A)
# Chain of cAMP-dependent protein kinase type I-alpha regulatory subunit [K244A] (P10644 whole entry K244A): as the sequence (P10644 whole entry K242A) above, with A242K, K244A counted along it
# Experimental: as §1
# [4] = target: cAMP-dependent protein kinase type I-alpha regulatory subunit [R241A] (Homo sapiens, UniProt P10644, R241A)
# Chain of cAMP-dependent protein kinase type I-alpha regulatory subunit [R241A] (P10644 whole entry R241A): as the sequence (P10644 whole entry K242A) above, with R241A, A242K counted along it
# Experimental: as §1
# [5] = target: cAMP-dependent protein kinase type I-alpha regulatory subunit [R243A] (Homo sapiens, UniProt P10644, R243A)
# Chain of cAMP-dependent protein kinase type I-alpha regulatory subunit [R243A] (P10644 whole entry R243A): as the sequence (P10644 whole entry K242A) above, with A242K, R243A counted along it
# Experimental: as §1
# Chain of cAMP-dependent protein kinase type I-alpha regulatory subunit (P10644 whole entry): as the sequence (P10644 whole entry K242A) above, with A242K counted along it
compound,measurement,setting,value
Nc1ncnc2c1nc(SCCNC(=S)Nc1ccc(-c3c4ccc(=O)cc-4oc4cc(O)ccc34)c(C(=O)O)c1)n2C1OC2COP(=O)(O)OC2C1O (stereo not given) [8-[Fluo]-cAMP],Kd,[1],7.3 nM
same,Kd,[2],7.32 nM
same,Kd,[3],7.71 nM
same,Kd,[4],6.72 nM
same,Kd,[5],7.29 nM

# — BindingDB's records for doi:10.1021/acs.biochem.6b01152 (University of California San Diego, 2017)
